Measurements reported in US20060128718A1, “Tetrahydropyridazine derivatives having a pesticidal effect” (priority 2002, published 2006).
Like-named read-outs stand apart in the source and are kept apart here.

How the values were obtained:
[1] = test system: larvae of the mustard beetle (Phaedon cochleariae); test: Phaedon larvae test (cabbage leaves dipped); type: in vivo
Excerpt: (§1) Phaedon Larvae Test To prepare one of the appropriate active ingredient preparations, mix 1 part by weight of the active ingredient with the indicated amount of solvent and emulsifier and dilute the concentrate with emulsifier-containing water to the desired concentration. Treat cabbage leaves (Brassica oleracea) by dipping into the active ingredient preparation of the desired concentration and infesting with larvae of the mustard beetle (Phaedon cochleariae) while the leaves are still damp. After the desired time, determine the death rate in %. For this purpose 100% means that all the beetle larvae on the leaves were killed; 0% means that no beetle larvae were killed.

[2] = logP determination by HPLC on reversed phase column (C 18), EEC directive 79/831; type: physicochemical; settings: reversed phase HPLC column (C 18)
Experimental: Determine the logP values given in the table as specified in EEC directive 79/831 ex V.A8 using HPLC (high performance liquid chromatography) in a reversed e column (C 18). Temperature: 43° C.
(a) eluents for determination in the acid range: 0.1% aqueous phosphoric acid, acetonitrile, linear gradient of 10% acetonitrile to 90% acetonitrile—corresponding measurement results are marked with an a) in Table 1.
(b) eluents for determination in the neutral range: 0.01-molar aqueous phosphate buffer solution, acetonitrile, linear gradient of 10% acetonitrile to 90% acetonitrile—corresponding measurement results are marked with a b) [sic] in Table 1.
Calibration is done using unbranched alkane-2-ones (with 3 to 16 carbon atoms), whose logP values are known (determination of the logP values using the retention times via linear interpolation between two sequential ketones).

[3] = test system: larvae of the diamondback moth (Plutella xylostella); test: Plutella test (cabbage leaves dipped); type: in vivo
Excerpt: as §1, with “Plutella” for “Phaedon Larvae”, “diamondback moth (Plutella xylostella)” for “mustard beetle (Phaedon cochleariae)”, “these purposes” for “this purpose”, “the” for “the beetle”, “no” for “no beetle”

[4] = test system: larvae of the fall armyworm (Spodoptera frugiperda); test: Spodoptera frugiperda test (cabbage leaves dipped); type: in vivo
Excerpt: as §1, with “Spodoptera frugiperda” for “Phaedon Larvae”, “infesting them” for “infesting”, “fall armyworm (Spodoptera frugiperda)” for “mustard beetle (Phaedon cochleariae)”, “these purposes” for “this purpose”, “the” for “the beetle”, “no” for “no beetle”

[5] = test system: Heliothis armigera larvae; test: Heliothis armigera test (soybean sprouts dipped, larvae); type: in vivo
Excerpt: Heliothis armigera Test To prepare one of the appropriate active ingredient preparations, mix 1 part by weight of the active ingredient with the indicated amount of solvent and emulsifier and dilute the concentrate with emulsifier-containing water to the desired concentration. Treat soybean sprouts (Glycine max) by dipping into the active ingredient preparation of the desired concentration and infesting with Heliothis armigera larvae while the leaves are still damp. After the desired time, determine the death rate in %. For these purposes 100% means that all the larvae on the leaves were killed; 0% means that no larvae were killed.

[6] = test system: larvae of the beet armyworm (Spodoptera exigua); test: Spodotera exigua test (cabbage leaves dipped); type: in vivo
Excerpt: Spodotera exigua Test To prepare one of the appropriate active ingredient preparations, mix 1 part by weight of the active ingredient with the indicated amount of solvent and emulsifier and dilute the concentrate with emulsifier-containing water to the desired concentration. Treat cabbage leaves (Brassica oleracea) by dipping into the active ingredient preparation of the desired concentration and infesting them with larvae of the beet armyworm (Spodoptera exigua) while the leaves are still damp. After the desired time, determine the death rate in %. For these purposes 100% means that all the larvae on the leaves were killed; 0% means that no larvae were killed.

[7] = 500 ppm active ingredient, after 7d, cabbage leaves

Row | chromatographic logP ([2]; pH 2.3, read-out: logp (pH: 2.3)) | chromatographic logP ([2]; pH 2, pH2) | Compound | Death rate in % after 7d [1, 7] | efficacy (in words) ([1]; Phaedon larvae test) | Death rate in % after 7d [3, 7] | efficacy (in words) ([3]; Plutella test) | Death rate in % after 7d [4, 7] | efficacy (in words) ([4]; Spodoptera frugiperda test) | Death rate in % after 7d ([5]; 500 ppm active ingredient, after 7d, soybean sprouts) | efficacy (in words) ([5]; Heliothis armigera test) | Death rate in % after 7d [6, 7] | efficacy (in words) ([6]; Spodotera exigua test)
1 | 4.22 | – | N#CCN(C(=O)N1CCC(n2cc(Cl)cn2)C(c2cccc(C(F)(F)F)c2)=N1)c1ccc(OC(F)(F)F)cc1 (stereo not drawn) [Example 1, N-cyanomethyl-4-(4-chloropyrazole-1-yl)-1-(4-trifluoromethoxy-phenylamino)-3-(trifluoromethyl-phenyl)-carbonyl-1,4,5,6-tetrahydropyridazine] | 100% | good efficacy | 100% | good efficacy | 100% | good efficacy | 100% | good efficacy | 100% | good efficacy
2 | – | 3.09 | N#Cc1cccc(C(=O)C(Br)CCCl)c1 (stereo not drawn) [Example (X-1), 3′-cyano-2-bromo-4-chlorobutyrophenone] | – | – | – | – | – | – | – | – | – | –
